The target in one assay is T1, BACE1 (Homo sapiens, UniProt P56817).
T1 construct: endogenous in cells; host or cells: HEK293 APP cells (HEK293 expressing APP)
As to the kind of experiment: Cellular Aβ-lowering assay (Abeta 40 AlphaLISA, HEK293 APP cells). Particulars: 18-20 hrs incubation, Aβ40 in culture supernatant, read-out: BACE1 cell act. Aβ40 IC50. In kind it is cell-based. Here is the method: Cellular Aβ-lowering Assay:
The Abeta 40 AlphaLISA Assay can be used. The HEK293 APP cells were seeded in 96 well Microtiter plates in cell culture medium (Iscove's, plus 10% (v/v) fetal bovine serum, penicillin/streptomycin) to about 80% confluency and the compounds were added at a 3× concentration in ⅓ volume of culture medium (final DMSO concentration was kept at 1% v/v). After 18-20 hrs incubation at 37° C. and 5% CO2 in a humidified incubator, the culture supernatants were harvested for the determination of Aβ40 concentrations using Perkin-Elmer Human Amyloid beta 1-40 (high specificity) Kit (Cat# AL275C).
In a Perkin-Elmer White Optiplate-384 (Cat# 6007290), 2 ul culture supernatants were combined with 2 μl of a 10× AlphaLISA Anti-hAβAcceptor beads+Biotinylated Antibody Anti-Aβ1-40 Mix (50 μg/mL/5 nM). After 1 hour room temperature incubation, 16 μl of a 1.25 × preparation of Streptavidin (SA) Donor beads (25 μg/mL) were added and incubated for 30 minutes in the Dark. Light Emission at 615 nm was then recorded using EnVision-Alpha Reader. Levels of Aβ 40 in the culture supernatants were calculated as percentage of maximum signal (cells treated with 1% DMSO without inhibitor). The IC50 values were calculated using the Excel XLfit software.
(In general: Alpha assays give light when donor and acceptor beads are brought close together.)

The subject of assay [1] is Aβ40 in brain of wild-type mice. As to the kind of experiment: Lowering of Aβ40 in brain of wild-type mice. In kind it is in vivo, mouse. The conditions noted are these: female C57Bl/6J mice, 30 mg/kg per os, 4 h after dose, brain Aβ40 as percentage of the vehicle group. On the procedure: Lowering of Aβ40 in Brain of Wild-Type Mice:
Animals and Housing Conditions. Animals were maintained in a 12/12 h light/dark cycle, with lights starting at 6 a.m., and experiments were conducted during the light phase. Animal housing and experimental procedures were in line with ethical and legal guidelines and were authorized by local veterinary authorities.
Experiment. Female C57B1/6J mice were treated with a dose of 30 mg/kg of the compounds, 3-4animals per treatment group. The test compound was dissolved in 5% EtOH, 10% Solutol, and was applied per os at 10 mL/kg. After 4 h, the animals were sacrificed and brain and plasma were collected. The brain was cut into halves and immediately frozen on dry ice. Brain was used for measurement of Aβ40 and plasma was used for determination of compound exposure. […] Brain tissue was homogenized in 2% DEA buffer in a Roche MagnaLyser (20″, 4000 rpm) and subsequently centrifuged for 1 h at 100000 g. DEA was reduced to 0.2% in 50 mM NaCl and one-half of the DEA lysate was passed over an Oasis Solid phase extraction plate (Waters; cat. no. 186000679), which had been activated with MeOH and equilibrated in dH2O (1 mL each). After washes in 10% and 30% MeOH (1 mL each), the Aβ-peptides were eluted in 0.8 mL of 2% NH4OH in 90% MeOH. The eluate was dried over a N2 flow, and the dried sample was reconstituted in 30 μL of AlphaLISA assay buffer. Aβ40 was determined by an AlphaLISA assay (Perkin-Elmer). In a white 96-well, half area microplate (Perkin-Elmer cat. no. 6005561), 20 μL of the reconstituted sample were mixed with 5 μL of biotinylated BAP-24 (specific for C-terminus of Aβ40) (Brockhaus, M.; Grunberg, J.; Rohrig, S.; Loetscher, H.; Wittenburg, N.; Baumeister, R.; Jacobsen, H.; Haass, C. Caspasemediated cleavage is not required for the activity of presenilins in amyloidogenesis and NOTCH signaling. NeuroReport 1998, 9, 1481-1486.) stock=4.4 mg/mL, f.c.5.5 μg/mL), and 5 μL 252Q6 acceptor beads (252Q6 antibody, Invitrogen AMB0062) had been previously conjugated with AlphaLISA Acceptor beads (Perkin-Elmer cat. no. 6772002); final dilution 1:500). The mix was incubated for 1 h at RT in the dark. Then 20 μL of Streptavin-coated Donor Beads (Perkin-Elmer cat. no. 6760002, final dilution 1:125) were added and this final mix was incubated in the dark for another 30 min at RT before RFU was measured in an AlphaScreen Reader (Perkin-Elmer Envision 2104). The value obtained for Aβ40 in the treated animals was related to the value in the vehicle group and is given in %. Alternatively a commercial ELISA was used for Aβ40 determination (Wako ELISA: (“Human/Rat β Amyloid (40) ELISA kit Wako II”; cat nr. 294-64701) following the manufacture's instruction. Also here the Aβ-lowering efficacy was calculated as percentage of the vehicle group.

Structures are written as SMILES.

From patent publication US9920072B2, “BACE1 inhibitors” (Hoffmann-La Roche Inc., priority 2014, dated 2018) come the findings set out here.

T1 sequence (P56817 46-501): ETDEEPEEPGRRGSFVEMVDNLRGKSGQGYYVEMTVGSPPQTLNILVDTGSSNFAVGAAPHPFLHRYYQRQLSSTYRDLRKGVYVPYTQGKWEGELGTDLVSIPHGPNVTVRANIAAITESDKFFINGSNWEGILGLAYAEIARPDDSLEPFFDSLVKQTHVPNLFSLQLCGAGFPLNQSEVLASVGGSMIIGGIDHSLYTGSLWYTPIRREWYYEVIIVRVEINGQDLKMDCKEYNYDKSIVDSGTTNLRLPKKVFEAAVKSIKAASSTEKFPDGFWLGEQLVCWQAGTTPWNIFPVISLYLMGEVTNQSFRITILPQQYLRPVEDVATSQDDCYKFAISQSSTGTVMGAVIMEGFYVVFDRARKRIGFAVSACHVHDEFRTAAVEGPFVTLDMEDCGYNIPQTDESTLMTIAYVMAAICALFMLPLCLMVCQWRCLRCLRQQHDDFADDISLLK

Consider `Cc1cc(C#N)cnc1C(=O)Nc1ccc(F)c(C2(C)CS3(=O)=NCCCC3(C)C(N)=N2)n1` (single isomer, unassigned) [Example 10], for which the half-inhibitory concentration (IC50) (usually the concentration at which inhibition is half-maximal) at BACE1 came out at 2.9 nM. For the same molecule, in assay [1] (30 mg/kg), the “Aβ40 (wt mice, brain)” value is 89%.

Take `CC1(c2nc(NC(=O)c3ccc(OCC(F)(F)C(F)F)cn3)ccc2F)CS2(=O)=NCCCC2(C)C(N)=N1` (single isomer, unassigned) [Example 12]: the IC50 at BACE1 stood at 320 nM. Moreover, the “Aβ40 (wt mice, brain)” value in assay [1] amounted to 77%.

On to `Cc1cc(C#N)cnc1C(=O)Nc1ccc(F)c(C2(CF)CS3(=O)=NCCCC3(C)C(N)=N2)n1` (single isomer, unassigned) [Example 9], for which, on BACE1, the IC50 is 98 nM. The “Aβ40 (wt mice, brain)” value in assay [1] (30 mg/kg) is 113%.

With `CC1(c2nc(NC(=O)c3ncc(C#N)cc3Cl)ccc2F)CS2(=O)=NCCCC2(C)C(N)=N1` (single isomer, unassigned) [Example 11], on BACE1, the IC50 turned out to be 2.3 nM. Moreover, in assay [1], the “Aβ40 (wt mice, brain)” value was determined as 90%.

On to `Cc1cc(C#N)cnc1C(=O)Nc1ccc(F)c(C2(CF)CS3(=O)=NCCCC3(C)C(N)=N2)n1` (single isomer, unassigned) [Example 5], for which, at BACE1, the IC50 worked out at 0.8 nM. In addition, the “Aβ40 (wt mice, brain)” value in assay [1] (30 mg/kg) was 88%.

Consider `Cc1cc(C#N)cnc1C(=O)Nc1ccc(F)c(C2(C)CS3(=O)=NCCCCC3(C)C(N)=N2)n1` (single isomer, unassigned) [Example 4, N-[6-(6-amino-5a,8-dimethyl-10-oxido-3,4,5,5a,8,9-hexahydro-2H-10λ^4-[1,4]thiazino[2,1-g][1,2]thiazepin-8-yl)-5-fluoropyridin-2-yl]-5-cyano-3-methylpyridine-2-carboxamide], for which the IC50 at BACE1 came out at 0.4 nM. Moreover, in assay [1] (30 mg/kg), the “Aβ40 (wt mice, brain)” value is reported as 83%.

Consider `CC12CCCN=S1(=O)CC(CF)(c1nc(NC(=O)c3ccc(OCC(F)(F)C(F)F)cn3)ccc1F)N=C2N` (single isomer, unassigned) [Example 7], for which, at BACE1, the IC50 is 46 nM.

In the case of `Cc1cc(C#N)cnc1C(=O)Nc1ccc(F)c(C2(C)CS3(=O)=NCCCCC3(C)C(N)=N2)n1` (single isomer, unassigned) [Example 3, N-[6-(6-amino-5a,8-dimethyl-10-oxido-3,4,5,5a,8,9-hexahydro-2H-10λ^4-[1,4]thiazino[2,1-g][1,2]thiazepin-8-yl)-5-fluoropyridin-2-yl]-5-cyano-3-methylpyridine-2-carboxamide], the IC50 on BACE1 worked out at 13.8 nM. For the same molecule, the “Aβ40 (wt mice, brain)” value in assay [1] (30 mg/kg) came to 95%.

As for `Cc1cc(C#N)cnc1C(=O)Nc1ccc(F)c(C2(C)CS3(=O)=NCCCC3(C)C(N)=N2)n1` (single isomer, unassigned) [Example 1, N-[6-(5-amino-4a,7-dimethyl-9-oxido-2,3,4,4a,7,8-hexahydro-9λ^4-[1,4]thiazino[2,1-f][1,2]thiazin-7-yl)-5-fluoropyridin-2-yl]-5-cyano-3-methylpyridine-2-carboxamide], the IC50 at BACE1 turned out to be 0.2 nM. The “Aβ40 (wt mice, brain)” value in assay [1] (30 mg/kg) turned out to be 62%.

Take `Cc1cc(C#N)cnc1C(=O)Nc1ccc(F)c(C2(C)CS3(=O)=NCCCCC3(C)C(N)=N2)n1` (single isomer, unassigned) [Example 2, N-[6-(6-amino-5a,8-dimethyl-10-oxido-3,4,5,5a,8,9-hexahydro-2H-10λ^4-[1,4]thiazino[2,1-g][1,2]thiazepin-8-yl)-5-fluoropyridin-2-yl]-5-cyano-3-methylpyridine-2-carboxamide]: at BACE1, the IC50 was determined as 0.2 nM. The “Aβ40 (wt mice, brain)” value in assay [1] (30 mg/kg) came to 48%.

For `Cc1cc(C#N)cnc1C(=O)Nc1ccc(F)c(C2(CF)CS3(=O)=NCCCC3(C)C(N)=N2)n1` (single isomer, unassigned) [Example 6], the IC50 on BACE1 is 218 nM.

For `Cc1cc(C#N)cnc1C(=O)Nc1ccc(F)c(C2(CF)CS3(=O)=NCCCC3(C)C(N)=N2)n1` (single isomer, unassigned) [Example 8], the IC50 on BACE1 was greater than 200 nM.
